Results from article PMC9486541, “Design, synthesis and cytotoxic evaluation of novel betulonic acid-diazine derivatives as potential antitumor agents” (Frontiers in Chemistry, 2022).

Columns and labels:
[1] = test system: MCF-7 cells; assay: DAPI staining of nuclear changes, MCF-7; format: cell-based, human; conditions: MCF-7 cells, 2, 4, 8 μM, 72 h
Procedure: Morphological observation of nuclear changes was performed by DAPI staining in this assay. MCF-7 cells in the logarithmic growth phase were seeded in 12-well plates at a density of 5 × 10^3 cells/well and were allowed to grow for 24 h. Then the cells were treated with different concentration ranges of BoA2C (0, 2, 4 8 μM) for 72 h. After the treatment period, cells were washed with PBS and fixed with 4% paraformaldehyde for 10 min. Then the liquid was discarded, and the cells were stained with DAPI (1 mg/ml, Molecular Probes/Invitrogen Life Technologies, Carlsbad, CA, United States) for 1 min in dark. After staining, cells were visualized under a fluorescence microscope (Olympus IX71, Tokyo, Japan).

[2] = test system: MDCK; assay: MTT assay, MDCK normal cell line; format: cell-based, canine
Description: (§1) The human hepatocellular carcinoma cell line (HepG2), human hepatocellular carcinoma cell line (Bel-7402), human cervical cancer cell line (Hela), human breast adenocarcinoma cell line (MCF-7) and Madin-Darby canine kidney cell line (MDCK) were obtained from the Chinese Academy of Medical Sciences and Peking Union Medical College. Cultures were maintained as monolayer in RPMI-1640/DMEM supplemented with 10% (v/v) fetal bovine serum (FBS) and 1% (v/v) penicillin/streptomycin (Thermo Technologies, New York, NY, United States) under a humidified atmosphere containing 5% CO2 at 37°C. The BoA derivatives and positive control drugs (BoA and DDP) under study were dissolved in DMSO (Sigma, St. Louis, MO, United States) and added at required concentrations to the cell culture. Cells incubated without the preparations served as the control.
(§2) The antitumor activity was assessed by MTT assay, as previously reported ([Fang et al., 2018]). Each tested compound and positive control drugs were dissolved in DMSO and diluted with the medium to the test concentrations, and the final concentration of DMSO in the culture medium was controlled at less than 0.5% (v/v). Briefly, cells were cultured at 37°C and dispersed in replicates in 96-well plates with HepG2, Bel-7402, HeLa, MCF-7 and MDCK for 24 h. Fresh medium along with compounds (BoAA-BoAE, BoA2A-BoA2G, BoA3A-BoA3G, BoA4A-BoA4G) at different concentrations was then added to individual wells and incubated for 72 h, with BoA and DDP as the positive control. Experiments on FXR expression were separated into three groups: Control (PBS), BoA2C (8 μM), and BoA2C (8 μM) + DY268 (10 μM) ([Giordano et al., 2016]), with three repeating wells in each. In separate wells, BoA2C and DY268 were introduced and cultured for 72 h. After 72 h, the cell was incubated with MTT solution (0.5 mg/ml) for an additional 4 h at 37°C. The produced formazan crystals were solubilized with DMSO, and the optical density of solution was measured at 570 nm using a plate reader (BIORAD 550 spectrophotometer, Bio-rad Life Science Development Ltd., Beijing, China). Wells without drugs were used to be blanks. The IC50 values were defined as the concentration of compounds that produced a 50% proliferation inhibition of surviving cells and calculated using the Graph Pad Prism 5. The inhibitory rate was calculated in the following Equation 1, where OD is the optical density: % inhibition=[1−(OD Sample group−OD Blank group)/(OD Control group−OD Blank group)]×100% (1)

[3] = test system: Hela; assay: MTT assay, Hela cells; format: cell-based, human; conditions: Homo sapiens, HeLa, 72 h incubation, read-out: Half maximal inhibitory concentration (IC50) values, Hela
Description: as §1, §2

**Q.** For C=C(C)[C@@H]1CC[C@]2(C(=O)OCCOC(=O)c3cnc(C)cn3)CC[C@]3(C)[C@H](CC[C@@H]4[C@@]5(C)CCC(=O)C(C)(C)[C@@H]5CC[C@]43C)[C@@H]12 [BoA2C, (5-Methylpyrazin-2-acyloxy)-ethyl-3-oxolup-20(29)-en-28-oate], which “nuclear morphological changes (DAPI staining)” value [1] is on record?
**A.** nuclear morphological changes typical of apoptosis in a dose-dependent manner

**Q.** And the “cytotoxicity on MDCK cell line compared with DDP (cisplatin)” value ([2]; 72 h)?
**A.** lower cytotoxicity on MDCK cell line than cisplatin

**Q.** And the IC50 ([2]; Canis lupus familiaris, MDCK, 72 h incubation, normal cell line, read-out: Half maximal inhibitory concentration (IC50) values, MDCK)?
**A.** > 30 µM

**Q.** What about the IC50 [3] of the same compound?
**A.** 15.6 ± 2.63 µM
